Measured values published in paper PMC3705371, “Helicusin E, Isochromophilone X and Isochromophilone XI: New Chloroazaphilones Produced by the Fungus Bartalinia robillardoides Strain LF550” (Marine Drugs, 2013).
Read-outs that look alike come from different tables or passages of the source.

Columns and labels:
Septoria tritici = assay: Antifungal assay, Septoria tritici (optical density); format: cell-based; conditions: for IC50: Zymoseptoria tritici, read-out: IC50 Septoria tritici
Method: Septoria tritici. The substances were dissolved in DMSO to a concentration of 10 mM and transferred into a 96-well microtiter plate. For screening purposes, the compounds were tested in a final concentration of 100 μM. The fungal strain S. tritici was cultured on MYG medium (1.0% malt extract, 0.4% yeast extract, 0.4% glucose·H2O, pH = 5.6) for four days, subsequently the culture was diluted to an optical density (600 nm) of 0.03 and added to the microtiter plate. After incubation for 48 h at 20 °C, the optical density was measured. The resulting values were compared to a positive (0.53 μM boscalid) and a negative control (no compound) on the same plate.

Bacillus subtilis = assay: Antibacterial assay, Bacillus subtilis; format: cell-based; conditions: for IC50: Bacillus subtilis, antibacterial
Method: (§1) Bacillus subtilis, Staphylococcus lentus, Xanthomonas campestris and Candida albicans. The antimicrobial assays were performed as reported by Schulz et al..

Staphylococcus lentus = assay: Antibacterial assay, Staphylococcus lentus; format: cell-based; conditions: for IC50: Mammaliicoccus lentus, antibacterial
Method: as §1

Candida albicans = assay: Antifungal assay, Candida albicans; format: cell-based; conditions: for IC50: antifungal
Method: as §1

Trichophyton rubrum = assay: Antifungal assay, Trichophyton rubrum (optical density); format: cell-based; conditions: for IC50: Trichophyton rubrum, antifungal, 72 h at 28 °C
Method: Trichophyton rubrum. The substances were dissolved in DMSO to a concentration of 10 mM and transferred into a 96-well microtiter plate. For screening purposes, the compounds were tested in a final concentration of 100 μM. For inoculation 5 × 10^4 spores mL^−1 from the fungal strain T. rubrum diluted in Sabouraud medium (1.0% peptone, 2.0% glucose·H2O, pH = 5.6) were added to the microtiter plate. After incubation for 72 h at 28 °C the optical density was measured.

Phosphodiesterase 4 = assay: Enzyme inhibition assay PDE4; format: biochemical; conditions: for IC50: enzyme assay
Method: (§2) Enzyme inhibition assays PDE4 and AChE assays were performed as described by Schulz et al. and Kim et al., respectively.

Acetylcholinesterase = Acetylcholinesterase (Homo sapiens, UniProt P22303); assay: biochemical; format: biochemical; conditions: for IC50: enzyme assay
Method: as §2

[1] = system: human fibroblast cell line (KIF5); assay: Cytotoxicity assay (CellTiterBlue), KIF5; format: cell-based; conditions: KIF5 cells
Method: (§3) Cytotoxicity assays. The sensitivity of the cell lines KIF5 and HepG2 to the isolated compounds was evaluated by monitoring the metabolic activity using the CellTiterBlue Cell Viability Assay (Promega, Mannheim, Germany). The human fibroblast cell line (KIF5) was provided by the Institute for Experimental Tumor Research, Section Molecular Oncology, Kiel, Germany, and the human hepatocellular carcinoma cell line (HepG2) was obtained from the German Collection of Microorganism and Cell Cultures (DSMZ, Braunschweig, Germany). The cytotoxicity assays were performed as described by Schulz et al., apart from the cell concentration, which were 5000 KIF5 cells and 10,000 HepG2 cells per vial.

[2] = system: human hepatocellular carcinoma cell line (HepG2); assay: Cytotoxicity assay (CellTiterBlue), HepG2; format: cell-based; conditions: HepG2 cells
Method: as §3

MRSA = conditions: cited from earlier work

Sequence of Acetylcholinesterase (P22303 32-614, species assumed): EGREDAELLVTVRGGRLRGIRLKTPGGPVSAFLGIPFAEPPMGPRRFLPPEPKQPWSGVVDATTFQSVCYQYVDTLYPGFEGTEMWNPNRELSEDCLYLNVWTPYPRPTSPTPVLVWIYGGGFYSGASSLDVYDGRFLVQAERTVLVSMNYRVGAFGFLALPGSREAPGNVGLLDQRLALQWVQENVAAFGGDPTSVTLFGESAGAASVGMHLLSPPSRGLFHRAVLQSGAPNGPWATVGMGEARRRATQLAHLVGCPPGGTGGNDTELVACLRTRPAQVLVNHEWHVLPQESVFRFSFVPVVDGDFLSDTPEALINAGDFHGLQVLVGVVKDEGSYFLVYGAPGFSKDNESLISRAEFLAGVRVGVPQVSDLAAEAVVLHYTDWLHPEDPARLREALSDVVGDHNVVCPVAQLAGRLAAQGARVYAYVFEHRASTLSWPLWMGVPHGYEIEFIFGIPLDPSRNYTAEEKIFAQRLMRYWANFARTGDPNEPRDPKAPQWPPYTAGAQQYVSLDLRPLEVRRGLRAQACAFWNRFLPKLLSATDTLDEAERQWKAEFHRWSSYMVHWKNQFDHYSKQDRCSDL

Structure (SMILES)	IC50 (Bacillus subtilis) [µM]	IC50 (Staphylococcus lentus) [µM]	antibacterial activity against Bacillus subtilis (in words) (Bacillus subtilis)	antibacterial activity against Staphylococcus lentus (in words) (Staphylococcus lentus)	inhibition of Candida albicans (in words) (Candida albicans)	inhibition of Septoria tritici (in words) (Septoria tritici)	inhibition of Trichophyton rubrum (in words) (Trichophyton rubrum)	IC50 (Candida albicans; Candida albicans) [µM]	IC50 (Septoria tritici; antifungal, 48 h at 20 °C) [µM]	IC50 (Trichophyton rubrum) [µM]	IC50 (Phosphodiesterase 4) [µM]	IC50 (Acetylcholinesterase) [µM]	further results
O=C(Nc1ccccc1-c1ccc(Cl)cc1)c1cccnc1Cl [boscalid, reference compound]	–	–	–	–	–	–	–	–	–	–	–	–	IC50 (Septoria tritici; 48 h): 0.53 µM
O=C(N[C@H](CO)[C@H](O)c1ccc([N+](=O)[O-])cc1)C(Cl)Cl [chloram-phenicol, reference compound]	1.45	2.13	–	–	–	–	–	–	–	–	–	–	–
CC=CC(=O)OC1CC(C)OC(=O)CCC(O)CC1=O (stereo not drawn) [compound 6, bartanolide]	–	–	inactive	inactive	inactive	inactive	inactive	–	–	–	–	–	inhibition of phosphodiesterase 4 (in words) (Phosphodiesterase 4): inactive; inhibition of acetylcholinesterase (in words) (Acetylcholinesterase): inactive; cytotoxic activity (in words) [1]: inactive; cytotoxic activity (in words) [2]: inactive
CCC(C)C=C(C)C=CC1=CC2=C(Cl)C(=O)C(C)(O)C(=O)C2=CO1 (stereo not drawn) [deacetylsclerotiorin (2), 5-Chloro-3-[3,5-dimethyl-1,3-heptadien-1-yl]-7-hydroxy-7-methyl-6H-2-benzopyran-6,8(7H)-dione]	38.8	43.6	Weak	Weak	Significant inhibition	Significant inhibition	Significant inhibition	24	7.45	2.83	2.79	> 50	IC50 (Phosphodiesterase 4; listed as 2): 2.8 µM
CCC(C)/C=C(C)/C=C/C1=CC2=C(Cl)C(=O)[C@@](C)(OC(=O)/C=C(\C)CC(=O)O)C(=O)C2=CO1 (stereo partly drawn) [helicusin A (1), helicusin A]	> 100	> 100	–	–	Significant inhibition	Significant inhibition	Significant inhibition	24.4	7.6	7.23	> 10	2.1	–
CCC(C)C(O)C(C)(O)/C=C/C1=CC2=C(Cl)C(=O)[C@@](C)(OC(=O)/C=C(\C)CC(=O)O)C(=O)C2=CO1 (stereo partly drawn) [helicusin E (3), helicusin E]	> 100	> 100	–	–	–	–	–	> 200	> 100	> 100	> 10	> 50	–
CCC(C)/C=C(C)/C=C/C1=CC2=C(Cl)C(=O)C(C)(OC(C)=O)C(=O)C2=CN1CCCC(=O)O (stereo not drawn) [isochromophilone IX]	–	–	–	–	–	–	–	–	–	–	–	–	MIC (MRSA): approximately 100 μM
CCC(C)/C=C(C)/C=C/C1=CC2=C(Cl)C(=O)[C@@](C)(OC(=O)/C=C(\C)CC(=O)O)C(=O)C2=CN1CCO (stereo partly drawn) [isochromophilone X (4), isochromophilone X]	> 100	> 100	–	–	–	–	–	> 100	> 100	> 80	11.7	–	–
CCC(C)/C=C(C)/C=C/C1=CC2=C(Cl)C(=O)C(C)(OC(=O)/C=C(\C)CC(=O)O)C(=O)C2(O)CO1 (stereo not drawn) [isochromophilone XI (5), isochromophilone XI]	55.6	78.4	Weak	Weak	–	–	weak activity	> 100	> 100	41.5	8.3	> 50	–
C[C@@H]1[C@H](O)[C@@H](C)/C=C/C=C/CC/C=C/C=C/C=C/C=C/C(O[C@H]2O[C@H](C)[C@@H](O)[C@H](N)[C@@H]2O)CC2O[C@](O)(CC(O)C(O)CCC(O)CC(O)CC(O)CC(=O)O[C@H]1C)CC(O)C2C(=O)O (stereo partly drawn) [nystatin, reference compound]	–	–	–	–	–	–	–	–	–	–	–	–	IC50 (Candida albicans): 5.8 µM
